Laboratory results reported in patent US9663478B2, “Benzotriazine oxides as drugs targeting Mycobacterium tuberculosis” (priority 2011, dated 2017).
In brackets after ≈: the same amount, converted by molar mass.

Legend:
[1] = test system: Acinetobacter baumannii BAA 1605; test: Spectrum of antimicrobial activity; type: cell-based
[2] = test system: Escherichia coli pKM101 SRI Collection; test: Spectrum of antimicrobial activity; type: cell-based
[3] = test system: Staphylococcus aureus ATCC 29213; test: Spectrum of antimicrobial activity; type: cell-based
NRP Mtb H37Rv cells = test: Low-oxygen recovery assay (LORA) MIC; type: cell-based, Mycobacterium tuberculosis; settings: Mycobacterium tuberculosis, H37RV; NRP Mtb; Tables 1-4 and text; read-out: LORA MIC - ITR
[4] = Solubility, shake-flask method; type: physicochemical; settings: 0.9% saline solution at pH 7.4, triplicate
Protocol: The solubility of these two compounds was measured in triplicate using the shake-flask method in a 0.9% saline solution at pH 7.4. Both 8a and 20q had acceptable solubilities of 1.35 mg/mL and 0.28 mg/mL, respectively.
Compounds were ground into a fine powders using a mortar and pestle and added to a 25 mL glass Erlenmeyer flask with 5 mL of a 0.9% saline solution at pH 7.4. Approximately 20 mg of compound was added to each flask to ensure saturation. The flasks were then vigorously stirred using a magnetic stir bar at 25° C. for 48 hours. The samples were then filtered through a Whatman PVDF membrane (0.45 μm pore size) syringe filter. The concentration of compound in the supernatant was then measured using HPLC quantitation at the maximum absorption wavelength for each compound.

[5] = Plasma pharmacokinetics in female mice after oral administration; type: in vivo, mouse; settings: female mice, oral, 100 mg/kg
Protocol: In order to validate BTOs as a new lead series for the treatment of TB, we also evaluated their systemic exposure in the mouse after oral administration. A single dose (100 mg/kg) of 8a and 20q were administered to mice in order to profile the pharmacokinetics for the BTOs (Table 7). […] The elimination half-life was for each compound was shorter than our ideal target values, but the Tmax values indicate that they are rapidly absorbed after oral administration (FIGURE).
All pharmacokinetic studies were performed in accordance with SRI International's animal care policies in an AAALAC and OLAW accredited facility. The procedure for the pharmacokinetics studies followed a previously described method.^55 Briefly, the plasma pharmacokinetics of selected BTO derivatives were determined in female CD1 mice after administration of a single dose (100 mg/kg) by oral gavage. Blood was collected from three mice per time point at 5, 15, 30, and 60 min and 2, 4, 6, 8, and 24 h after dose administration. Means and standard deviations were calculated for the plasma drug concentrations at each time point. Pharmacokinetic analysis was performed using non compartmental methods (WinNonlin® Professional, Version 5.2, Pharsight Corp, Mountain View, Calif.). The following parameters were calculated: time to maximum plasma concentration (Tmax), maximum plasma concentration (Cmax), maximum plasma concentration extrapoloated to time 0 (C0), area under the plasma concentration-time curve to the last time point (AUClast) and to infinity (AUCinf).

Escherichia coli BAA 201 = test: Spectrum of antimicrobial activity; type: cell-based
[6] = test system: Staphylococcus aureus HA-MRSA NRS 382; test: Spectrum of antimicrobial activity; type: cell-based
Mtb H37Rv = test: TB MIC - ITR (UIC), Institute for Tuberculosis Research; type: cell-based, Mycobacterium tuberculosis; settings: Mycobacterium tuberculosis, H37RV, read-out: TB MIC - ITR
[7] = test system: Mycobacterium smegmatis ATCC 10143; test: Spectrum of antimicrobial activity; type: cell-based
[8] = test system: Enterobacter aerogenes ATCC 29751; test: Spectrum of antimicrobial activity; type: cell-based
[9] = test system: Klebsiella pneumoniae ATCC 43816; test: Spectrum of antimicrobial activity; type: cell-based
[10] = test system: Pseudomonas aeruginosa ATCC 27853; test: Spectrum of antimicrobial activity; type: cell-based

[O-][n+]1nc(N2CCCC2)[n+]([O-])c2cc3c(cc21)CCC3 [Compound 20q, 3-(pyrrolidin-1-yl)-7,8-dihydro-6H-indeno[5,6-e][1,2,4]triazine 1,4-dioxide]
Antimicrobial activity, Acinetobacter baumannii [1]: >32 µg/mL | Antimicrobial activity, Escherichia coli pKM101 [2]: >32 μg/mL | Antimicrobial activity, Staphylococcus aureus [3]: >32 µg/mL | MIC (NRP Mtb H37Rv cells): 0.99 µg/mL (≈ 3.64 µM) | solubility [4]: 280 µg/mL (≈ 1030 µM) | AUCinf [5]: 11248 ng·h/mL | AUClast [5]: 11219 ng·h/mL | Cmax [5]: 9767 ng/mL | Tmax [5]: 0.25 h | t1/2 [5]: 1.9 h | Antimicrobial activity, Escherichia coli (Escherichia coli BAA 201): >32 µg/mL | Antimicrobial activity, Staphylococcus aureus HA-MRSA [6]: >32 µg/mL | MIC (Mtb H37Rv): 0.46 µg/mL (≈ 1.69 µM) | Antimicrobial activity, Mycobacterium smegmatis [7]: 2.5 µg/mL | Antimicrobial activity, Enterobacter aerogenes [8]: >32 µg/mL | Antimicrobial activity, Klebsiella pneumoniae [9]: >32 µg/mL | Antimicrobial activity, Pseudomonas aeruginosa [10]: >32 µg/mL
